# Source: patent US9995734B2, “Human T cell line assay for evaluating the immunologic identity of glatiramer acetate preparations” (Mylan Inc., priority 2013, dated 2018)
# Test system: Donor 1 COP T-Cell Lines
# Experiment: Multiplex bead cytokine assay (FlowCytoMix), Donor 1 COP T-cell lines
# Type: cell-based, human
# Description: Culture medium was removed from cultures prepared as for proliferation assay and utilized to measure cytokine production. In most cases culture medium was collected 18-24 hours after mixing T-cells, APC, and stimulating antigen. Cytokine production was measured by ELISA or bead assay. For measuring cytokine production, 100-150 μL culture medium (100 μL if culture was to be continued, otherwise 150 μL) was removed from each well. In some cases, the culture was continued 48 hours, for a total of 72 hours of culture, and the proliferative response measured.
# The concentration of multiple cytokines was measured simultaneously using FlowCytoMix™ kits (eBioscience, San Diego Calif.). These are fluorescent bead based assays consisting of beads conjugated to anti cytokine antibodies. Beads specific for each cytokine are distinguished by size and fluorescence at 670 run. Cytokine bound to each bead is detected using a phycoerythrin conjugated antibody so that the fluorescence at 585 nm reflects the concentration of cytokine in the sample. Two kits were utilized which measured different cytokine panels. The TH1/TH2 kit measures IFN-γ, IL-1β, IL-2, IL-4, IL-5, IL-6, IL-8, IL-10, IL-12p70, TNF-α (TNF) and TNF-β (LT). The TH1/TH2/TH9/TH17/TH22 kit measures […], IL-1β, IL-2, IL-4, IL-5, IL-6, IL-9, IL-10, IL-12p70, IL-13, IL-17, IL-22, and TNF-α (TNF). Both kits were used following the manufacturer's instructions.
# IL-12p70, IFN-γ, IL-2, IL-10, IL-8, IL-6, IL-5, IL-4, IL-1β, TNF-α (TNF), and TNF-β (LT) secretion were measured in response to stimulation with 1, 3, or 10 μg/mL GMA, or 1, 3, or 10 μg/mL COP, as well as a no-antigen control and an MBP control, in the presence of autologous EBV-transformed B-LCL.
# [1] = 222-1C5, 1 μg/mL, 24 hours after Day 56 restimulation
# [2] = 222-1C5, 3 μg/mL, 24 hours after Day 56 restimulation
# [3] = 222-1C5, 10 μg/mL, 24 hours after Day 56 restimulation
# [4] = 222-1C5, 10 μg/mL, Day 34 supernatants
# [5] = 222-1H12, 10 μg/mL, Day 34 supernatants
# [6] = 222-2B8, 1 μg/mL, 24 hours after Day 56 restimulation
# [7] = 222-2B8, 3 μg/mL, 24 hours after Day 56 restimulation
# [8] = 222-2B8, 10 μg/mL, 24 hours after Day 56 restimulation
# [9] = 222-2D2, 10 μg/mL, Day 34 supernatants
# [10] = 222-2D8, 10 μg/mL, Day 34 supernatants
# [11] = 222-2E1, 1 μg/mL, 24 hours after Day 56 restimulation
# [12] = 222-2E1, 3 μg/mL, 24 hours after Day 56 restimulation
# [13] = 222-2E1, 10 μg/mL, 24 hours after Day 56 restimulation
# [14] = 222-B11 (so in the source), 1 μg/mL, 24 hours after Day 56 restimulation
# [15] = 222-B11 (so in the source), 3 μg/mL, 24 hours after Day 56 restimulation
# [16] = 222-B11 (so in the source), 10 μg/mL, 24 hours after Day 56 restimulation
substance,measurement,setting,value
glatiramer acetate [GMA],IFN-γ,[1],181 pg/mL
same,IL-2,[1],30 pg/mL
same,IL-5,[1],0 pg/mL
same,IL-10,[1],11 pg/mL
same,IL-13,[1],154 pg/mL
same,IL-22,[1],39 pg/mL
same,TNF-α,[1],3 pg/mL
same,IFN-γ,[2],325 pg/mL
same,IL-2,[2],83 pg/mL
same,IL-5,[2],0 pg/mL
same,IL-10,[2],38 pg/mL
same,IL-13,[2],316 pg/mL
same,IL-22,[2],101 pg/mL
same,TNF-α,[2],72 pg/mL
same,IFN-γ,[3],664 pg/mL
same,IL-2,[3],0 pg/mL
same,IL-5,[3],0 pg/mL
same,IL-10,[3],55 pg/mL
same,IL-13,[3],942 pg/mL
same,IL-22,[3],0 pg/mL
same,TNF-α,[3],80 pg/mL
same,IFN-γ,[4],511.42 pg/mL
same,IL-1β,[4],94.12 pg/mL
same,IL-2,[4],185.35 pg/mL
same,IL-5,[4],67.83 pg/mL
same,IL-8,[4],<= 0 pg/mL
same,IL-10,[4],77.88 pg/mL
same,TNF-α,[4],31.35 pg/mL
same,TNF-β,[4],29.94 pg/mL
same,IFN-γ,[5],3138 pg/mL
same,IL-1β,[5],20 pg/mL
same,IL-2,[5],152 pg/mL
same,IL-4,[5],99 pg/mL
same,IL-5,[5],336 pg/mL
same,IL-10,[5],234 pg/mL
same,TNF-α,[5],83 pg/mL
same,TNF-β,[5],102 pg/mL
same,IFN-γ,[6],1.88 pg/mL
same,IL-2,[6],0 pg/mL
same,IL-5,[6],0 pg/mL
same,IL-10,[6],0 pg/mL
same,IL-13,[6],183.09 pg/mL
same,IL-22,[6],0 pg/mL
same,TNF-α,[6],0 pg/mL
same,IFN-γ,[7],44.52 pg/mL
same,IL-2,[7],1.6 pg/mL
same,IL-5,[7],78.29 pg/mL
same,IL-10,[7],1.8 pg/mL
same,IL-13,[7],1214.45 pg/mL
same,IL-22,[7],63.98 pg/mL
same,TNF-α,[7],0 pg/mL
same,IFN-γ,[8],140.65 pg/mL
same,IL-2,[8],0 pg/mL
same,IL-5,[8],400.46 pg/mL
same,IL-10,[8],41 pg/mL
same,IL-13,[8],3162.51 pg/mL
same,IL-22,[8],124.15 pg/mL
same,TNF-α,[8],96.57 pg/mL
same,IFN-γ,[9],53.75 pg/mL
same,IL-1β,[9],103.85 pg/mL
same,IL-2,[9],55.42 pg/mL
same,IL-5,[9],29.13 pg/mL
same,IL-8,[9],<= 0 pg/mL
same,IL-10,[9],26.12 pg/mL
same,TNF-α,[9],5.35 pg/mL
same,TNF-β,[9],5.79 pg/mL
same,"IL-4, IL-6, or IL-12 detected","222-2D8, 222-1H12, 222-1C5, 222-2D2, Day 34 supernatants",Little or no
same,IFN-γ,[10],2616 pg/mL
same,IL-1β,[10],2420 pg/mL
same,IL-2,[10],52 pg/mL
same,IL-4,[10],41 pg/mL
same,IL-5,[10],1501 pg/mL
same,IL-10,[10],107 pg/mL
same,TNF-α,[10],405 pg/mL
same,TNF-β,[10],243 pg/mL
same,IFN-γ,[11],49.11 pg/mL
same,IL-2,[11],0 pg/mL
same,IL-5,[11],0 pg/mL
same,IL-10,[11],0 pg/mL
same,IL-13,[11],146.02 pg/mL
same,IL-22,[11],21.77 pg/mL
same,TNF-α,[11],9.36 pg/mL
same,IFN-γ,[12],162.68 pg/mL
same,IL-2,[12],0 pg/mL
same,IL-5,[12],0 pg/mL
same,IL-10,[12],7.1 pg/mL
same,IL-13,[12],1050.77 pg/mL
same,IL-22,[12],25.71 pg/mL
same,TNF-α,[12],65.44 pg/mL
same,IFN-γ,[13],349.76 pg/mL
same,IL-2,[13],0 pg/mL
same,IL-5,[13],128.4 pg/mL
same,IL-10,[13],16.33 pg/mL
same,IL-13,[13],2036.36 pg/mL
same,IL-22,[13],0 pg/mL
same,TNF-α,[13],170.24 pg/mL
same,IFN-γ,[14],0 pg/mL
same,IL-2,[14],0 pg/mL
same,IL-5,[14],0 pg/mL
same,IL-10,[14],1.3 pg/mL
same,IL-13,[14],29.41 pg/mL
same,IL-22,[14],42.51 pg/mL
same,TNF-α,[14],0 pg/mL
same,IFN-γ,[15],0 pg/mL
same,IL-2,[15],0 pg/mL
same,IL-5,[15],0 pg/mL
same,IL-10,[15],0 pg/mL
same,IL-13,[15],133.55 pg/mL
same,IL-22,[15],51.87 pg/mL
same,TNF-α,[15],0 pg/mL
same,IFN-γ,[16],37.79 pg/mL
same,IL-2,[16],0 pg/mL
same,IL-5,[16],94.56 pg/mL
same,IL-10,[16],0.4 pg/mL
same,IL-13,[16],1563.22 pg/mL
same,IL-22,[16],0 pg/mL
same,TNF-α,[16],0 pg/mL
same,IFN-γ production,"Line 105 (so in the source), Table 14 = 222-1C5, after appropriate dilution of supernatants",comparable amounts
